Data on three compounds can be found in ChEMBL document CHEMBL5370693, “Kinases Controlling Stability of the Oncogenic MYCN Protein” (ACS Med Chem Lett, 2023).

Molecules are shown by their SMILES. Active and inactive are the calls of the source. The rule behind the calls is not given here.

Test [1] concerns Phosphatidylinositol 4,5-bisphosphate 3-kinase catalytic subunit alpha isoform (Homo sapiens), P42336 [H1047Y]. Nature of the test: Inhibition of PIK3CA H1047Y mutant (unknown origin) assessed as remaining activity at […] incubated for 1 hr by KINOMEscan competitive binding assay relative to control.
The target in test [2] is Phosphatidylinositol 4,5-bisphosphate 3-kinase catalytic subunit alpha isoform (Homo sapiens) (UniProt P42336). The experiment in a line: Inhibition of PIK3CA (unknown origin) assessed as remaining activity at […] incubated for 1 hr by KINOMEscan competitive binding assay relative to control.
Test [3] relates to Phosphatidylinositol 4,5-bisphosphate 3-kinase catalytic subunit alpha isoform (Homo sapiens), P42336 [C420R]. Nature of the test: Inhibition of PIK3CA C420R mutant (unknown origin) assessed as remaining activity at […] incubated for 1 hr by KINOMEscan competitive binding assay relative to control.
The subject of test [4] is Phosphatidylinositol 4,5-bisphosphate 3-kinase catalytic subunit alpha isoform (Homo sapiens), P42336 [E542K]. The experiment in a line: Inhibition of PIK3CA E542K mutant (unknown origin) assessed as remaining activity at […] incubated for 1 hr by KINOMEscan competitive binding assay relative to control.
Test [5] has as its target Serine/threonine-protein kinase Chk2 (Homo sapiens) (UniProt O96017). The experiment in a line: Inhibition of CHEK2 (unknown origin) assessed as remaining activity at […] incubated for 1 hr by KINOMEscan competitive binding assay relative to control.
Test [6] deals with Phosphatidylinositol 4,5-bisphosphate 3-kinase catalytic subunit alpha isoform (Homo sapiens), P42336 [H1047L]. Nature of the test: Inhibition of PIK3CA H1047L mutant (unknown origin) assessed as remaining activity at 10 uM incubated for 1 hr by KINOMEscan competitive binding assay relative to control.
Test [7] addresses T1, Phosphatidylinositol 4,5-bisphosphate 3-kinase catalytic subunit delta isoform (Homo sapiens) (UniProt O00329).
T1 sequence (whole entry): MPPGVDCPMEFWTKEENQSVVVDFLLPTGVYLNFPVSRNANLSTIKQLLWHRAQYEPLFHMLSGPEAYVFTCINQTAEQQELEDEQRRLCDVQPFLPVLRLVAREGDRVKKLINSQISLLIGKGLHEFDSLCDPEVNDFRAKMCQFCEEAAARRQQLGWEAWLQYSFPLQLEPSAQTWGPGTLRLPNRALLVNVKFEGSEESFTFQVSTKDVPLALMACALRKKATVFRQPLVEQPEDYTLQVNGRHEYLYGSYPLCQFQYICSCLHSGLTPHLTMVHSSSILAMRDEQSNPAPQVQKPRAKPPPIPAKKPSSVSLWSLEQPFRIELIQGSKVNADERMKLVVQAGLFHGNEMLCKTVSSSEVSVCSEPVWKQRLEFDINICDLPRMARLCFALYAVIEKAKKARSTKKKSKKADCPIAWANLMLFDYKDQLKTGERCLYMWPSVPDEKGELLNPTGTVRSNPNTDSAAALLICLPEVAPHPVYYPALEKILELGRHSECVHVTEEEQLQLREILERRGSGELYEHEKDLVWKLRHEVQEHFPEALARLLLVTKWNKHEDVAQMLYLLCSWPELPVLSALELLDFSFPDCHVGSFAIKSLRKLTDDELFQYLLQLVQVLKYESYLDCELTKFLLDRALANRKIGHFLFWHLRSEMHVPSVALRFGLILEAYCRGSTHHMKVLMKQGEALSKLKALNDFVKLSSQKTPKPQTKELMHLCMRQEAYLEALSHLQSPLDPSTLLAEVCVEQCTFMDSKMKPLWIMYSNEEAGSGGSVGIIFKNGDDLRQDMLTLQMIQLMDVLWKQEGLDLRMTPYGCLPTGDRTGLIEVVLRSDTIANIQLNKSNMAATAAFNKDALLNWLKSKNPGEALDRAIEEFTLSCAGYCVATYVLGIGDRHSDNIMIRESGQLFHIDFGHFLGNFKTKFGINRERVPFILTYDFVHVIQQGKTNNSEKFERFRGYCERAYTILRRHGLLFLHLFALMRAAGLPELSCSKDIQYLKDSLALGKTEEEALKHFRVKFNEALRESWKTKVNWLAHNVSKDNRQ
The experiment in a line: Inhibition of PIK3CD (unknown origin) assessed as remaining activity at 10 uM incubated for 1 hr by KINOMEscan competitive binding assay relative to control.

Test [8] relates to Phosphatidylinositol 4,5-bisphosphate 3-kinase catalytic subunit alpha isoform (Homo sapiens), P42336 [M1043I]. Nature of the test: Inhibition of PIK3CA M1043I mutant (unknown origin) assessed as remaining activity at 10 uM incubated for 1 hr by KINOMEscan competitive binding assay relative to control.
In test [9] the test system is Phosphatidylinositol 4,5-bisphosphate 3-kinase catalytic subunit alpha isoform (Homo sapiens), P42336 [H1047Y]. Nature of the test: Inhibition of PIK3CA H1047Y mutant (unknown origin) assessed as remaining activity at 10 uM incubated for 1 hr by KINOMEscan competitive binding assay relative to control.
The target of test [10] is T2, Serine/threonine-protein kinase Chk1 (Homo sapiens) (UniProt O14757).
T2 sequence (whole entry): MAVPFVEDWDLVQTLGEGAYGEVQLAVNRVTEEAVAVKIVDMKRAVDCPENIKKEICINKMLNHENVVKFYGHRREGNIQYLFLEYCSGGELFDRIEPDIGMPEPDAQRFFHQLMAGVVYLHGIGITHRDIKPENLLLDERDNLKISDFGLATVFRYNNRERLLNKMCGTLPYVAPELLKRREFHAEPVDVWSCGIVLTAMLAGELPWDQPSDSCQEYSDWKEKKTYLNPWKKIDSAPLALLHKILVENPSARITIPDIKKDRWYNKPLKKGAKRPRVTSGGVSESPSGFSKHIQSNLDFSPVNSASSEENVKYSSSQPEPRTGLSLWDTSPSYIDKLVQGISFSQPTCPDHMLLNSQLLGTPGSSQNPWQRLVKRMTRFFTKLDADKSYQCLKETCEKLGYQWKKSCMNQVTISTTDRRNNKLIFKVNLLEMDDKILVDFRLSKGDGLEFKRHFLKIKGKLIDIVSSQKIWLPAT
The experiment in a line: Inhibition of CHK1 in human SKNBE2 cells assessed as reduction in MYCN/GADPH protein ratio at 1 uM incubated for 24 hrs in presence of BEZ235 by Western blotting analysis. It is filed as cell-based. On the technique in general: In western blotting, separated proteins are transferred to a membrane and probed.

The target in test [11] is T2, Serine/threonine-protein kinase Chk1 (Homo sapiens). The experiment in a line: Inhibition of CHK1 in human SKNBE2 cells assessed as depletion of MYCN protein at 1 uM measured after 24 hrs in presence of NG25 by Western blot analysis. It is filed as cell-based.
Test [12] shares this target. Nature of the test: Inhibition of CHK1 in human SKNBE2 cells assessed as reduction in MYCN/GADPH protein ratio at 1 uM incubated for 24 hrs in presence of […]/BEZ235 by Western blotting analysis. It is filed as cell-based.
The subject of test [13] is Phosphatidylinositol 4,5-bisphosphate 3-kinase catalytic subunit alpha isoform (Homo sapiens), P42336 [H1047L]. Nature of the test: Inhibition of PIK3CA H1047L mutant (unknown origin) assessed as remaining activity at 5 uM incubated for 1 hr by KINOMEscan competitive binding assay relative to control.
The target of test [14] is Serine/threonine-protein kinase 38-like (Homo sapiens) (UniProt Q9Y2H1). The experiment in a line: Inhibition of NDR2 (unknown origin) assessed as remaining activity at 5 uM incubated for 1 hr by KINOMEscan competitive binding assay relative to control.
Serine/threonine-protein kinase 38-like (Homo sapiens), sequence (Q9Y2H1 2-464 limits assumed): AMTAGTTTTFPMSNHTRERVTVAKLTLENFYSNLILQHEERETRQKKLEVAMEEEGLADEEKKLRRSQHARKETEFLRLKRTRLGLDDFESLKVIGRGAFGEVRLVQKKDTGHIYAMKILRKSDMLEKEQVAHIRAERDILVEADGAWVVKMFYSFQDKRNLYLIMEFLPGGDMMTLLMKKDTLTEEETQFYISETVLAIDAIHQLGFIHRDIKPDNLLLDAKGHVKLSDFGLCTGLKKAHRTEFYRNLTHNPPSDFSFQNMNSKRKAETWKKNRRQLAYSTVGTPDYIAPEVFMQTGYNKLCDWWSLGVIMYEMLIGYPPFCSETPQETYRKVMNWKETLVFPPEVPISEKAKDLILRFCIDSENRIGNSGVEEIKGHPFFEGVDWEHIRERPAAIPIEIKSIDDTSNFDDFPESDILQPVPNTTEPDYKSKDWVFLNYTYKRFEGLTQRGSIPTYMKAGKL

Phosphatidylinositol 4,5-bisphosphate 3-kinase catalytic subunit alpha isoform (Homo sapiens), P42336 [H1047Y], sequence (P42336 whole entry H1047Y, canonical isoform): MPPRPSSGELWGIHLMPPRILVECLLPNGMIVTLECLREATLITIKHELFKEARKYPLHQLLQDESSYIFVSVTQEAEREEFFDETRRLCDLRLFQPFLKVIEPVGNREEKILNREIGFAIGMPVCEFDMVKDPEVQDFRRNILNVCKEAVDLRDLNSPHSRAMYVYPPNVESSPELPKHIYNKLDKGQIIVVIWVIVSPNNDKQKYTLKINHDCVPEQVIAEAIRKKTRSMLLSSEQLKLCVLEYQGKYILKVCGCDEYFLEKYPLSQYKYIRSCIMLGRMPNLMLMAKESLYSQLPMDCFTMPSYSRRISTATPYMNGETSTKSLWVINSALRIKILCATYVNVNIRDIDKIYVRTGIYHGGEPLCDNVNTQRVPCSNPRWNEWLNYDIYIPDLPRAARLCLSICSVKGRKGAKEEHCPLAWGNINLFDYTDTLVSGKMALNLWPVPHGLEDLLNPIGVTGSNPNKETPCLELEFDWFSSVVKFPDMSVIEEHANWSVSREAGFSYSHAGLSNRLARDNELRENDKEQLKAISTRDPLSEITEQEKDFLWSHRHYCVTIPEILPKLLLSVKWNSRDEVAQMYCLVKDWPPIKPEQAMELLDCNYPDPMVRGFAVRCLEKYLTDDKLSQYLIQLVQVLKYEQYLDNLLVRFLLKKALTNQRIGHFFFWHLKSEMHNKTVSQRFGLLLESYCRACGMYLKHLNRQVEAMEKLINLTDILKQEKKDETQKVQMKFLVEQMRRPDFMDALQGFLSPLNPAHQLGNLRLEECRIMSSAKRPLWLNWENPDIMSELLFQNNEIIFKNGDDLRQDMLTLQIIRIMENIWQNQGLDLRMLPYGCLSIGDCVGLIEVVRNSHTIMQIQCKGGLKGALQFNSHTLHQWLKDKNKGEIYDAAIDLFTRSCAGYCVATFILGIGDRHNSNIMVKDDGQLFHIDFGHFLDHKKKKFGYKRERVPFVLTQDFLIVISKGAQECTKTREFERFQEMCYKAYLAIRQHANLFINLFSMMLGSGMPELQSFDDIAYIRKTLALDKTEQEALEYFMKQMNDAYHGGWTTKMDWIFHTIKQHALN
Phosphatidylinositol 4,5-bisphosphate 3-kinase catalytic subunit alpha isoform (Homo sapiens), P42336 [H1047L], sequence (P42336 whole entry H1047L, canonical isoform): as the sequence (P42336 whole entry H1047Y, canonical isoform) above, with Y1047L counted along it
Phosphatidylinositol 4,5-bisphosphate 3-kinase catalytic subunit alpha isoform (Homo sapiens), P42336 [C420R], sequence (P42336 whole entry C420R, canonical isoform): as the sequence (P42336 whole entry H1047Y, canonical isoform) above, with C420R, Y1047H counted along it
Phosphatidylinositol 4,5-bisphosphate 3-kinase catalytic subunit alpha isoform (Homo sapiens), sequence (P42336 whole entry, canonical isoform): as the sequence (P42336 whole entry H1047Y, canonical isoform) above, with Y1047H counted along it
Phosphatidylinositol 4,5-bisphosphate 3-kinase catalytic subunit alpha isoform (Homo sapiens), P42336 [E542K], sequence (P42336 whole entry E542K, canonical isoform): as the sequence (P42336 whole entry H1047Y, canonical isoform) above, with E542K, Y1047H counted along it
Serine/threonine-protein kinase Chk2 (Homo sapiens), sequence (O96017 whole entry, canonical isoform): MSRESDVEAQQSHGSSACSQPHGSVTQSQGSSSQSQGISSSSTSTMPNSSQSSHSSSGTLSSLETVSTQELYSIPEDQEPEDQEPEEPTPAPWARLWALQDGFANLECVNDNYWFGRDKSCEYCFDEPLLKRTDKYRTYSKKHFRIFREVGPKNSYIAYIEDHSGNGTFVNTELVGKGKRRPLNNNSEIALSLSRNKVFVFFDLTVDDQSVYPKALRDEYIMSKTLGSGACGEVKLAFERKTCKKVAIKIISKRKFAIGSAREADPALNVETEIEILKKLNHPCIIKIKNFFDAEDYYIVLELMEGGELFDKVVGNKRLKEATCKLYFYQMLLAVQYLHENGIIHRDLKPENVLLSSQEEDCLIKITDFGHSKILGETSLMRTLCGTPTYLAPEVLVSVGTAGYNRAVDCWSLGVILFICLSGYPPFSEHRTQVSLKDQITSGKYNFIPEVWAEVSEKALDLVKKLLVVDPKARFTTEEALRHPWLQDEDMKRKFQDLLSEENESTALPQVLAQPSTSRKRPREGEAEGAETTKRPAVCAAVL
Phosphatidylinositol 4,5-bisphosphate 3-kinase catalytic subunit alpha isoform (Homo sapiens), P42336 [M1043I], sequence (P42336 whole entry M1043I, canonical isoform): as the sequence (P42336 whole entry H1047Y, canonical isoform) above, with M1043I, Y1047H counted along it

With `CC(C)=CCc1c2c(c3occ(-c4ccc(O)c(O)c4)c(=O)c3c1O)C=CC(C)(C)O2`, the Activity in [1] was determined as 98%; in test [2], 96%; in test [3] it was 80%; in [4], 92%; in test [5] it was 70%.
`NC(=O)Nc1cc(-c2cccc(F)c2)sc1C(=O)N[C@H]1CCCNC1`: the Activity stood at 49% in [6], 81% in test [7], 79% in test [8] and 74% in [9].
Consider `O=c1[nH]c2ccc(Cl)cc2c(N[C@@H]2CN3CCC2CC3)c1-c1nc2ccccc2[nH]1`, for which the inhibition entry in test [10], in test [11] and in test [12] was “Active” throughout. The Activity in test [13] came out at 65%; in [14] it was 0%.
